Reference: patent US20240158392A1 (Janssen Biotech, Inc., priority 2021, published 2024)
Where two headings read alike, the source gives them in different places.

Biological target: SIK2 (Homo sapiens, UniProt Q9H0K1)
Experiment: SIK2 Enzymatic Assay High Version 2 (High ATP)
Type: biochemical
How it was run: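 At room temperature, enzyme (6 nM, 2× final) was preincubated with compound for 30 min, then 6 mM ATP and 400 μM HDAC5tide (both 2× final) were added for 2 h. ADP formed was measured by ADP-Glo Max (2 h reagent, 1 h detection) using luminescence.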

[1] = enzyme 6 nM, 6 mM ATP and 400 μM HDAC5tide (each 2× final concentration), 30 minutes pre-incubation, 2 hours, ADP-Glo Max luminescence, read-out: SIK2 high ATP IC50 (μM) (Test Example 2)

SIK2, sequence (Q9H0K1 whole entry, species assumed): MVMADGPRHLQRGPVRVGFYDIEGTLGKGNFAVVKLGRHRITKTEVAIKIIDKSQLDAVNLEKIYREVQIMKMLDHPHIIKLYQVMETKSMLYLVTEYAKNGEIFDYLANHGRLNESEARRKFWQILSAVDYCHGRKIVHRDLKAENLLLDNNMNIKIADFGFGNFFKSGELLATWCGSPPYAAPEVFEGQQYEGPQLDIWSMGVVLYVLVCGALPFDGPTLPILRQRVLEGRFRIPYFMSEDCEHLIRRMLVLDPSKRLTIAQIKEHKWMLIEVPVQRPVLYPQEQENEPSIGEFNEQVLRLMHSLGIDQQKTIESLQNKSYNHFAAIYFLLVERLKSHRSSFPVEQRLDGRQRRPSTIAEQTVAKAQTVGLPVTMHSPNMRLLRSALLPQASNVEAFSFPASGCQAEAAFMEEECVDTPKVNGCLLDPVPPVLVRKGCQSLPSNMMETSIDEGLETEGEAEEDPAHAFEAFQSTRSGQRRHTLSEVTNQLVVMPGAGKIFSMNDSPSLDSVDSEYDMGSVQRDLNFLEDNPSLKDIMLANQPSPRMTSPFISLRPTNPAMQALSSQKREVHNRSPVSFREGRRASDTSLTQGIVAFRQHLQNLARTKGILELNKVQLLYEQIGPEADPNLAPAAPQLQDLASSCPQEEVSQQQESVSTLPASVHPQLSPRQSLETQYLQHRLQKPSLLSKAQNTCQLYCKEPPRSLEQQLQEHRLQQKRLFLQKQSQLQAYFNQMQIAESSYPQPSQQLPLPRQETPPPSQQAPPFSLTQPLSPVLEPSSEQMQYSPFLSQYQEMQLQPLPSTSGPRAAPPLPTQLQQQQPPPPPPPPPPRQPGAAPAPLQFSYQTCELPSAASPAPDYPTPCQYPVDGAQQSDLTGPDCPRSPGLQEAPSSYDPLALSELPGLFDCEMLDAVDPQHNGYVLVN

Molecule | IC50 [1] [µM] | IC50 [µM]
Cc1cc(-c2ccn3nc(Nc4cc(C)nc(C(=O)NCC(C)(C)O)n4)cc3c2)c(OCC(C)(C)O)cn1 [Example 647, 4-[[5-[5-(2-hydroxy-2-methyl-propoxy)-2-methyl-4-pyridyl]pyrazolo[1,5-a]pyridin-2-yl]amino]-N-(2-hydroxy-2-methyl-propyl)-6-methyl-pyrimidine-2-carboxamide] | 0.117 | –
Cc1ccc(Nc2cc3cc(-c4cc(OC(F)F)ncc4OCC(C)(C)C#N)ccn3n2)nn1 [Example 711, 3-[[6-(difluoromethoxy)-4-[2-[(6-methylpyridazin-3-yl)amino]pyrazolo[1,5-a]pyridin-5-yl]-3-pyridyl]oxy]-2,2-dimethyl-propanenitrile] | 0.01 | –
CN1CC(Oc2cnc(Cl)cc2-c2ccn3nc(NC(=O)C4CC4)cc3c2)C1 [Example 491, N-[5-[2-chloro-5-(1-methylazetidin-3-yl)oxy-4-pyridyl]pyrazolo[1,5-a]pyridin-2-yl]cyclopropanecarboxamide] | 0.0152 | –
N-[5-[2-cyano-5-[[(1R,5S,7s)-9-methyl-3-oxa-9-azabicyclo[3.3.1]nonan-7-yl]oxy]-4-pyridyl]pyrazolo[1,5-a]pyridin-2-yl]cyclopropanecarboxamide [Example 656] | 0.132 | –
Cc1cc(-c2ccn3nc(Nc4cnn(C)c4)cc3c2)c(O[C@H]2CC[C@](C)(O)CC2)cn1 [Example 163, (1r,4r)-1-methyl-4-((6-methyl-4-(2-((1-methyl-1H-pyrazol-4-yl)amino)pyrazolo[1,5-a]pyridin-5-yl)pyridin-3-yl)oxy)cyclohexan-1-ol] | 0.00795 | –
Cc1cc(-c2ccn3nc(Nc4cc(C)nc(C)n4)cc3c2)c(O[C@@H]2CNC[C@@H]2F)cn1 [Example 278, N-(2,6-dimethylpyrimidin-4-yl)-5-[5-[(3R,4S)-4-fluoropyrrolidin-3-yl]oxy-2-methyl-4-pyridyl]pyrazolo[1,5-a]pyridin-2-amine] | 0.0025 | –
Cc1cc(-c2ccn3nc(Nc4cc(C)nc(C)n4)cc3c2)c(OC[C@]2(O)CCCOC2)cn1 (single isomer, unassigned) [Example 608, (*S)-3-[[4-[2-[(2,6-dimethylpyrimidin-4-yl)amino]pyrazolo[1,5-a]pyridin-5-yl]-6-methyl-3-pyridyl]oxymethyl]tetrahydropyran-3-ol] | 0.0922 | –
Cc1cc(-c2ccn3nc(Nc4cc(C)nc(C(=O)NC5CC5)n4)cc3c2)c(OCC(C)(C)O)cn1 [Example 640, N-cyclopropyl-4-[[5-[5-(2-hydroxy-2-methyl-propoxy)-2-methyl-4-pyridyl]pyrazolo[1,5-a]pyridin-2-yl]amino]-6-methyl-pyrimidine-2-carboxamide] | 0.0295 | –
Cc1cc(-c2ccn3nc(NC(=O)C4CC4)cc3c2)c(OC[C@H]2N(C)CC2(C)C)cn1 [Example 473, N-[5-[2-methyl-5-[[(2S)-1,3,3-trimethylazetidin-2-yl]methoxy]-4-pyridyl]pyrazolo[1,5-a]pyridin-2-yl]cyclopropanecarboxamide] | – | 0.0182
Cc1cc(-c2ccn3nc(Nc4ccc(C(=O)NC5CCOCC5)cn4)cc3c2)c(O[C@H]2C[C@H]3COC[C@@H](C2)N3)cn1 [Example 388, 6-[[5-[2-methyl-5-[[(1S,5R,7s)-3-oxa-9-azabicyclo[3.3.1]nonan-7-yl]oxy]-4-pyridyl]pyrazolo[1,5-a]pyridin-2-yl]amino]-N-tetrahydropyran-4-yl-pyridine-3-carboxamide] | – | 0.00103
Cc1cc(-c2ccn3nc(Nc4cc(C)nc(C)n4)cc3c2)c(OC[C@H]2OCC[C@@H]2O)cn1 [Example 218, (2R,3S)-2-[[4-[2-[(2,6-dimethylpyrimidin-4-yl)amino]pyrazolo[1,5-a]pyridin-5-yl]-6-methyl-3-pyridyl]oxymethyl]tetrahydrofuran-3-ol] | 0.00407 | –
Cc1cc(-c2ccn3nc(NC(=O)C4CC4)cc3c2)c(OCC2(NC3CC3)CCC2)cn1 [Example 157, N-[5-[5-[[1-(cyclopropylamino)cyclobutyl]methoxy]-2-methyl-4-pyridyl]pyrazolo[1,5-a]pyridin-2-yl]cyclopropanecarboxamide] | 0.0708 | –
Cc1cc(-c2ccn3nc(Nc4cnccn4)cc3c2)c(O[C@H]2C[C@H]3COC[C@@H](C2)N3)nn1 [Example 486, 5-[6-methyl-3-[[(1S,5R)-3-oxa-9-azabicyclo[3.3.1]nonan-7-yl]oxy]pyridazin-4-yl]-N-pyrazin-2-yl-pyrazolo[1,5-a]pyridin-2-amine] | – | 0.0285
Cc1cc(-c2ccn3nc(Nc4ccn(C)n4)cc3c2)c(O[C@H]2C[C@H]3COC[C@@H](C2)N3C)cn1 [Example 423, 5-[2-methyl-5-[[(1S,5R,7s)-9-methyl-3-oxa-9-azabicyclo[3.3.1]nonan-7-yl]oxy]-4-pyridyl]-N-(1-methylpyrazol-3-yl)pyrazolo[1,5-a]pyridin-2-amine] | – | 0.0103

The remaining molecules from weak to strong by IC50 [1], led by results:

IC50 [1] [µM] | Molecule | IC50 [µM]
0.165 | CO[C@H]1CN(C)C[C@@H]1COc1cnc(C)cc1-c1ccn2nc(NC(=O)C3CC3)cc2c1 (racemic) [Example 571, (3RS, 4RS)—N-[5-[5-[(4-methoxy-1-methyl-pyrrolidin-3-yl)methoxy]-2-methyl-4-pyridyl]pyrazolo[1,5-a]pyridin-2-yl]cyclopropanecarboxamide] | –
0.0271 | Cc1cc(-c2ccn3nc(Nc4cc(C)nc(C)n4)cc3c2)c(OCC(C)(C)N)cn1 [Example 359, 5-[5-(2-amino-2-methyl-propoxy)-2-methyl-4-pyridyl]-N-(2,6-dimethylpyrimidin-4-yl)pyrazolo[1,5-a]pyridin-2-amine] | –
0.0249 | Cc1cc(-c2ccn3nc(Nc4cnn(C)c4)cc3c2)c(OC[C@@H]2CNCCO2)cn1 [Example 128, 5-[2-methyl-5-[[(2S)-morpholin-2-yl]methoxy]-4-pyridyl]-N-(1-methylpyrazol-4-yl)pyrazolo[1,5-a]pyridin-2-amine] | –
0.015 | COc1cc(Nc2cc3cc(-c4cc(C)ncc4O[C@H]4CC[C@H](O)CC4)ccn3n2)cc(OC)c1C(=O)N(C)C [Example 332, 4-[[5-[5-(4-hydroxycyclohexoxy)-2-methyl-4-pyridyl]pyrazolo[1,5-a]pyridin-2-yl]amino]-2,6-dimethoxy-N,N-dimethyl-benzamide] | –
0.00682 | Cc1cc(Nc2cc3cc(-c4cc(OC(F)F)ncc4OC[C@@H]4CNCCO4)ccn3n2)nc(C)n1 [Example 502, 5-[2-(difluoromethoxy)-5-[[(2S)-morpholin-2-yl]methoxy]-4-pyridyl]-N-(2,6-dimethylpyrimidin-4-yl)pyrazolo[1,5-a]pyridin-2-amine] | –
0.00617 | Cn1ccc(Nc2cc3cc(-c4cc(OC(F)F)ncc4OCC(C)(C)C#N)ccn3n2)n1 [Example 714, 3-[[6-(difluoromethoxy)-4-[2-[(1-methylpyrazol-3-yl)amino]pyrazolo[1,5-a]pyridin-5-yl]-3-pyridyl]oxy]-2,2-dimethyl-propanenitrile] | –
0.00587 | Cc1cc(-c2ccn3nc(Nc4cc(C)nc(C5CC5)n4)cc3c2)c(OCC(C)(C)O)cn1 [Example 229, 1-[[4-[2-[(2-cyclopropyl-6-methyl-pyrimidin-4-yl)amino]pyrazolo[1,5-a]pyridin-5-yl]-6-methyl-3-pyridyl]oxy]-2-methyl-propan-2-ol] | –
0.00343 | COCc1nc(C)cc(Nc2cc3cc(-c4cc(C)ncc4O[C@H]4CC[C@H](O)CC4)ccn3n2)n1 [Example 225, (1r,4r)-4-((4-(2-((2-(methoxymethyl)-6-methylpyrimidin-4-yl)amino)pyrazolo[1,5-a]pyridin-5-yl)-6-methylpyridin-3-yl)oxy)cyclohexan-1-ol] | –
